According to US20110243993A1, “Method for diagnosing and creating immunogenic tolerance in contact allergy and other epithelial immunotoxicological ailments” (priority 2010, published 2011):
Entries after “also recorded” stand apart in the source; their conditions may differ.

Columns and labels:
[1] = mouse, in vivo; cited from earlier work
[2] = system: anti-nuclear antibodies (ANA); test: Levels of anti-nuclear antibodies (ANA) after contact with sensitizing compounds; conditions: contact with sensitizing compound
[3] = system: serum amyloid P component (SAP); test: ELISA detection of serum amyloid protein (SAP) in sera of hapten-exposed mice; conditions: mice exposed on skin, booster dose on day 10
Experimental: Extreme sensitizers: Oxazolone (4-Ethoxymethylene-2-phenyl-2-oxazolin-5-one, 1.4 mM) CDNB (1-Chloro-2,4-dinitrobenzene, 7.4 mM)); Strong sensitizers: dBBr (48.6 mM), Glyoxal (ethane-1,2-dione, 1.27 M). DMSO was used as control. All chemicals are purchased from Sigma-Aldrich (Stockholm, Sweden).
Apply 25 μl of the solution to the back of both ears (25 μl on each ear), once daily, on day 1, 2 and 3. Apply a booster dose on day 10 (if necessary). Sacrifice the mice on day 6 (or day 13 if a booster dose is used) by anesthetization with isoflurane (Kent Scientific Corporation, Torrington, Conn., USA) followed by inhalation of carbon dioxide (AGA, Lidingö, Sverige). To collect blood: Use a 1 ml syringe (B. Braun Medical Inc., Bethlehem, Pa., USA) with a 0.4 mm×12 mm injection needle (B. Braun Medical Inc., Bethlehem, Pa., USA). Place the tip of the needle just below the breastbone so that the syringe is linear to the abdomen. Insert the needle just below the breastbone and press it towards the heart. When inside the heart, withdraw blood. It is important to loosen the piston a little from the bottom of the syringe before inserting into the mouse. Carefully rotate the syringe during withdrawal to avoid clotting. […]
The SAP Mouse, ELISA kit 96 tests, quantitative (Alpha Diagnostics International Inc., San Antonio, Tex., USA) is used. […]

[4] = system: human keratinocytes; conditions: for blebbing response of keratinocytes: compound added to human keratinocytes, vehicle DMSO
Description: (§1) The third step is that this residue (C54) is situated in a stretch of K5 that has been shown through its interactions with desmoplakin, to be vital in maintaining the integrity of the desmosome. It is known that epithelial cells with a compromised cell-cell (and/or cell-matrix) contact undergo apoptosis (“anoikis”). […] Basal keratinocytes consists of up to 35% of insoluble keratin intermediate filaments (KIFs). As basal keratinocytes occasionally undergo apoptosis, a mechanism of waste removal of the debris of insoluble keratins has evolved. […] The keratin bodies bleb off the cells.

[5] = system: K5 and K14; test: Western blot of blebs using K5 and K14 antibodies; format: cell-based, human; conditions: blebs from hapten-exposed keratinocytes
Description: Elevated levels of ANA are common features in various autoimmune diseases such as Sjögrens syndrome (SS), rheumatoid arthritis (RA) and systemic lupus erythematosus (SLE).
as §1

[6] = naïve mice; cited from earlier work
[7] = system: keratins; test: Cross-linking of bleb proteins by bidentate haptens; parameters: species or system human; conditions: bidentate hapten
Description: In SDS-PAGE experiments it was shown that thiol-, amine-, and arginine-reactive sensitizers give rise to blebs that contain the same protein bands. In this step, it is thus shown that by adding haptens to keratinocytes, the haptens induce expulsion of a high amount of cryptic epitopes that are normally concealed from the immune system through their intracellular location and/or neoepitopes consisting of haptenated/differently processed peptides and proteins. It was also shown, using a LTQ-FT-ICR mass spectrometer coupled to a nanospray source, that the blebs contain other proteins, for example peptidyl-prolyl cis-trans isomerase A, stathmin, calmodulin, cofilin-1, transgelin-2, 14-3-3 protein sigma, annexin A2, tubulin, keratin 6A 6B 6C, transitional endoplasmic reticulum ATPase, endoplasmin, and importin-5. […] It was also shown that the sensitizing compounds also modify other proteins and that these proteins are released in blebs, as visualized by fluorescent bands on SDS-gels.

[8] = target: T1, cysteine 54 (C54) of K5 (Homo sapiens, UniProt P13647); test: Identification of haptenation site with LTQ-FT-ICR mass spectrometer
T1 construct: endogenous in cells; host or cells: living (primary) human keratinocytes and intact full-thickness human skin
T1 sequence (P13647 1-590): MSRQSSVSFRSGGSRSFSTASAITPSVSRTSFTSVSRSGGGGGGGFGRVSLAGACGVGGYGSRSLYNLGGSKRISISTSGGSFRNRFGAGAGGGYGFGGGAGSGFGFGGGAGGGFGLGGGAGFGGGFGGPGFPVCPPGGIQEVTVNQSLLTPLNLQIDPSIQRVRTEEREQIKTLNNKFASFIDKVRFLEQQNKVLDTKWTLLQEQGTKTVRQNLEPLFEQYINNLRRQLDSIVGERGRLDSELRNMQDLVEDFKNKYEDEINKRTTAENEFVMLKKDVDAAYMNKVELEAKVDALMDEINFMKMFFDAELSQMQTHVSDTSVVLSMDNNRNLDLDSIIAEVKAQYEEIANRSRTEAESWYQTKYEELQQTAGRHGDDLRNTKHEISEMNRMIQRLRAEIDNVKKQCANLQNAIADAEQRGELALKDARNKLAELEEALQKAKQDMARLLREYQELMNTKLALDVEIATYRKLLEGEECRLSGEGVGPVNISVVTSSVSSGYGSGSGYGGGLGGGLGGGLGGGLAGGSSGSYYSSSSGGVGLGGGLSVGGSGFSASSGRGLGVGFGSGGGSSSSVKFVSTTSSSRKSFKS
T1 sequence (P02533 1-472 partner): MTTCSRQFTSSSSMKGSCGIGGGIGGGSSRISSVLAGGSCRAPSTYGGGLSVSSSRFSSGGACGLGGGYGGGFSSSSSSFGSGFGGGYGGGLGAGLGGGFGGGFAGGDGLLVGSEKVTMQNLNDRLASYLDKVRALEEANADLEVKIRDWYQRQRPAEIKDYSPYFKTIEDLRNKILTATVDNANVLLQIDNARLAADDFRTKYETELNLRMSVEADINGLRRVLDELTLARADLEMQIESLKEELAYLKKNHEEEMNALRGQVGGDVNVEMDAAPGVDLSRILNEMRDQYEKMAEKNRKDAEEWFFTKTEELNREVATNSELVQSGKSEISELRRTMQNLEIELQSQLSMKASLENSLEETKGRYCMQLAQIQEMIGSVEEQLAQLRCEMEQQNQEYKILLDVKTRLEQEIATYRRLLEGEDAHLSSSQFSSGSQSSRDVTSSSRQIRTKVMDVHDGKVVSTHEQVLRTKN
Description: The second step is that the molecules enter the basal cells. Since the extracellular environment is oxidizing, extracellular cysteines are mostly oxidized to disulfides. However, it is in the reduced, intracellular environment that the haptens find reduced thiols to react with. Once inside the cells the compounds will react with available (i.e. not sterically hindered) reduced cysteines (thiol groups). […] Furthermore, it was identified that one of the cysteines that the haptens react with is cysteine 54 (C54) of K5. […] One of the reasons for intense reaction at C54 is presumably its high effective concentration just inside the cell membrane. It is vital in the life of an organism to fail-safe its epithelial integrity, and the bundling of the KIFs ensures a high effective local concentration of the peptide stretch containing C54, ensuring strong welding of the cell to its surroundings. Amino acids nearby in the primary sequence are consequently also located within physical reach of an incoming compound in similarly high effective concentrations. Looking at blebbing brought on by amine- and arginine-reactive compounds from this angle, the residues K71 and R72 are the closest candidates in the primary sequence.

[9] = Induction of oral tolerance in humans allergic to cinnamic aldehyde; format: in vivo, human; conditions: once a day for 5-100 days, vs placebo (tap water)
Description: Peptides (including, but not limited to): 1: [Ace]-[…]-[Amide]; 2: [Ace]-[…]-[Amide], 3: [Ace]-[…]-[Amide]. The peptides 1 and 2 represent sequences from keratin 5 and peptide 3 is derived from keratin 14; however, it is the intention that the invention also includes peptides and/or proteins from other proteins, e.g. such as those found in the blebs from keratinocytes that have been exposed to haptens.
Preparation of amino acid containing epitope targets as described in example 3.
Of 20 individuals with a confirmed allergy to the hapten cinnamic aldehyde, 10 are given a test solution of 0.5 mg to 10 g amino acid containing epitope target 1 once a day for 5-100 days. The other 10 individuals are given a placebo (i.e. tap water) to drink according to the same administration scheme and time table as described above. The antibody and T cell epitope mapping profiles for each individual are then evaluated according to procedures in example 4 and 5. Each individual is also patch-tested with cinnamic aldehyde.

## O=c1[nH]sc2ccccc12 [1,2-Benzisothiazolin-3-one]
[1]
  sensitizer class by EC3-value: Moderate (key: Extreme: For extreme sensitizers (EC3<0.1%); Strong: For strong sensitizers (0.1%<EC3<1%); Moderate: For moderate sensitizers (1%<EC3<10%); Weak: For weak sensitizers (EC3>10%))

## O=[N+]([O-])c1ccc(Cl)c([N+](=O)[O-])c1 [CDNB, 1-Chloro-2,4-dinitrobenzene]
[2]
  levels of anti-nuclear antibodies (ANA): increased levels
[3]
  levels of SAP protein in sera: increased levels
[4]
  blebbing response of keratinocytes: provoke a blebbing response
[1]
  sensitizer class by EC3-value: Extreme (key: Extreme: For extreme sensitizers (EC3<0.1%); Strong: For strong sensitizers (0.1%<EC3<1%); Moderate: For moderate sensitizers (1%<EC3<10%); Weak: For weak sensitizers (EC3>10%))

## C=O [Formaldehyde]
[1]
  sensitizer class by EC3-value: Strong (key: Extreme: For extreme sensitizers (EC3<0.1%); Strong: For strong sensitizers (0.1%<EC3<1%); Moderate: For moderate sensitizers (1%<EC3<10%); Weak: For weak sensitizers (EC3>10%))

## O=CC=O [Glyoxal, ethane-1,2-dione]
[2]
  levels of anti-nuclear antibodies (ANA): increased levels
[3]
  levels of SAP protein in sera: increased levels
[5]
  keratins (K5 and K14) in blebs: contain K5 and K14; also recorded: also contain keratins
[4]
  blebbing response of keratinocytes: provoke a blebbing response
[1]
  sensitizer class by EC3-value: Strong (key: Extreme: For extreme sensitizers (EC3<0.1%); Strong: For strong sensitizers (0.1%<EC3<1%); Moderate: For moderate sensitizers (1%<EC3<10%); Weak: For weak sensitizers (EC3>10%))

## CCOC=C1N=C(c2ccccc2)OC1=O [Oxazolone, 4-Ethoxymethylene-2-phenyl-2-oxazolin-5-one]
[6]
  protection against the hapten after tolerance induction: some protection
[2]
  levels of anti-nuclear antibodies (ANA): increased levels
[5]
  keratins (K5 and K14) in blebs: contain K5 and K14; also recorded: also contain keratins
[4]
  blebbing response of keratinocytes: provoke a blebbing response

## O=CCc1ccccc1 [Phenylacetaldehyde]
[1]
  sensitizer class by EC3-value: Moderate (key: Extreme: For extreme sensitizers (EC3<0.1%); Strong: For strong sensitizers (0.1%<EC3<1%); Moderate: For moderate sensitizers (1%<EC3<10%); Weak: For weak sensitizers (EC3>10%))

## CCCCCCCCCCCCOS(=O)(=O)[O-].[Na+] [SDS, Sodium dodecyl sulphate]
[4]; human keratinocytes exposed to compound
  cellular response other than blebbing: cells seem to “dissolve”

## Cc1c(CBr)n2c(CBr)c(C)c(=O)n2c1=O [dBBr, dibromobimane]
[2]
  levels of anti-nuclear antibodies (ANA): increased levels
[7]
  cross links between proteins: cause cross links between for example keratins

## Cc1c(C)n2c(CBr)c(C)c(=O)n2c1=O [mBBr]
[8]; intact, full-thickness human skin
  covalent modification of C54 of K5: modifies C54 of K5
[8]; living human keratinocytes
  covalent modification of C54 of K5: modify C54 of K5; also recorded: modifies C54 of K5

## [Ni] [nickel]
[6]
  protection against the hapten after tolerance induction: some protection

## CCCCCCC(C=O)=Cc1ccccc1 [α-Hexyl-cinnamicaldehyde]
[1]
  sensitizer class by EC3-value: Weak (key: Extreme: For extreme sensitizers (EC3<0.1%); Strong: For strong sensitizers (0.1%<EC3<1%); Moderate: For moderate sensitizers (1%<EC3<10%); Weak: For weak sensitizers (EC3>10%))

## [Ace]-VSLGGACGAGGYG-[Amide] [amino acid containing epitope target 1]
[9]
  antibodies and T cells against the amino acid containing epitope target: less antibodies and T cells
  reaction to cinnamic aldehyde in the patch test: less reaction
